Data taken from ChEMBL document CHEMBL1151974, “Sesquiterpenoids and phenylpropanoids from pericarps of Illicium oligandrum” (2009).

What follows are compounds tested on SH-SY5Y (assay: Neuroprotective activity against H2O2-induced human SH-SY5Y cell damage assessed as increase in cell viability at 1 uM pretreated 2 hrs before H2O2 challenge relative to control).
Type: functional

Row | Compound | Activity [%]
1 | C[C@@]12COC(=O)[C@]1(C)[C@@H](O)[C@]13CC(=O)O[C@@]1(C)CC[C@]23O [ANISLACTONE B] | 12.55
2 | C[C@]12COC(=O)C[C@@]3(CC(=O)[C@]1(C)O)[C@]2(O)CC[C@]3(C)O | 2.76

What follows are compounds tested on SH-SY5Y (assay: Neuroprotective activity against H2O2-induced human SH-SY5Y cell damage assessed as increase in cell viability at 10 uM pretreated 2 hrs before H2O2 challenge relative to control).
Type: functional

Row | Compound | Activity [%]
3 | VITAMIN E | 7.16
4 | COc1ccc([C@@H]2O[C@@H]3[C@@H](O[C@H]2C)O[C@H](CO)[C@@H](O)[C@@H]3O)cc1 [OLIGANDRUMIN E] | 6.42
5 | COc1ccc([C@@H](O)[C@H](C)O)cc1 (relative stereo) [ERYTHRO ANETHOLE GLYCOL] | 7.29
6 | C[C@@H]1[C@H](O)C[C@]23OC(=O)C[C@]12C[C@]1(O)OC[C@]3(C)[C@@H]1C [PSEUDOMAJUCIN] | 2.83
